Values after ≈ are worked out from the molar mass of the structure shown. Each block holds one molecule with its values, some of them ahead of it.
Columns and labels:
[1] = In vitro penetration of drug across cadaver skin, modified Franz diffusion cell; assay type: in vitro ADME, human
Procedure: The rate of penetration and lag time are determined by studying in vitro the penetration of the drug across cadaver skin, hairless mouse skin or other suitable membrane.
A measured portion of each of the formulations 1A-E was applied to the surface of the cadaver skin. The appearance of drug on the dermal side was monitored quantitatively over six days.
Using formulation 2B, four skin samples from the same person were used to determine the average flux. Using formulation 2C, skin samples from four different people were used to determine the average flux.
All formulations were gelled using 6.5 percent by weight of sodium stearate.
A measured portion of each formulation,8A & B, was applied to the surface of the cadaver skin. The appearance of drug on the dermal side was monitored quantitatively over six days.

[2] = Equilibrium solubility of active ingredients in solvents; assay type: physicochemical; conditions: organic solvent or mixture, 34 °C
Procedure: An exact amount of saturated solution is withdrawn into a volumetric flask while maintaining temperature. The saturated solution is diluted in suitable solvent and the content of active ingredient measured by high pressure liquid chromatography or other suitable analytical method.

- increase in rate of penetration ([1]; mixed solvent system compared to the pure solvents alone, cadaver skin): 3 to 4 times
SMILES: C[C@]12CC[C@@H]3c4ccc(O)cc4CC[C@H]3[C@@H]1CC[C@@H]2O [17-beta-estradiol]

SMILES: N=C(N)N/N=C/c1c(Cl)cccc1Cl [Guanabenz]
- solubility thermodynamic ([2]; 35/65 propylene glycol/glycerine, 35/65PG/Gly): 21.2 mg/mL (≈ 91.7 mM)
- solubility thermodynamic ([2]; 50/50 propylene glycol/glycerine, 50/50PG/Gly): 29.4 mg/mL (≈ 127 mM)
- solubility thermodynamic ([2]; Glycerine): 7.97 mg/mL (≈ 34.5 mM)
- solubility thermodynamic ([2]; Propylene Glycol): 47 mg/mL (≈ 203 mM)

- rate of penetration enhanced ([1]; levonorgestrel, by 10 weight percent of propylene glycol and glycerine combination): 2.7 times
SMILES: C#C[C@]1(O)CC[C@H]2[C@@H]3CCC4=CC(=O)CC[C@@H]4[C@H]3CC[C@@]21CC [Levo-norgestrel]

— EP0165696A2, “Improved transdermal dosage form” (priority 1984, dated 1985)
